The source of these data is ChEMBL document CHEMBL5260856, “Design, synthesis and biological evaluation of pyrazolo[3,4-b]pyridine derivatives as TRK inhibitors” (RSC Med Chem, 2023).

SMILES strings stand for the structures. Where only a bound is given, the exact number is not on record here.

Usually IC50 stands for the concentration that inhibits the measured activity by half. Usually inhibition stands for the share of the control response that was lost under treatment. The low end stands for little suppression, the high end for strong suppression. The term half-life denotes how long it takes for the measured level to halve.

The target of series [1] is High affinity nerve growth factor receptor (Homo sapiens, UniProt P04629). Briefly: Inhibition of TRKA (unknown origin) using TK as substrate in presence of ATP incubated for 30 mins by HTRF KinEASE assay. In general terms: Time-resolved FRET reads energy transfer from a long-lived donor to a nearby acceptor.
Series [2] addresses Serine/threonine-protein kinase PAK 4 (Homo sapiens, UniProt O96013). Briefly: Inhibition of PAK4 (unknown origin).
The target in series [3] is T1, Serine/threonine-protein kinase PLK4 (Homo sapiens, UniProt O00444).
T1 sequence (O00444 whole entry): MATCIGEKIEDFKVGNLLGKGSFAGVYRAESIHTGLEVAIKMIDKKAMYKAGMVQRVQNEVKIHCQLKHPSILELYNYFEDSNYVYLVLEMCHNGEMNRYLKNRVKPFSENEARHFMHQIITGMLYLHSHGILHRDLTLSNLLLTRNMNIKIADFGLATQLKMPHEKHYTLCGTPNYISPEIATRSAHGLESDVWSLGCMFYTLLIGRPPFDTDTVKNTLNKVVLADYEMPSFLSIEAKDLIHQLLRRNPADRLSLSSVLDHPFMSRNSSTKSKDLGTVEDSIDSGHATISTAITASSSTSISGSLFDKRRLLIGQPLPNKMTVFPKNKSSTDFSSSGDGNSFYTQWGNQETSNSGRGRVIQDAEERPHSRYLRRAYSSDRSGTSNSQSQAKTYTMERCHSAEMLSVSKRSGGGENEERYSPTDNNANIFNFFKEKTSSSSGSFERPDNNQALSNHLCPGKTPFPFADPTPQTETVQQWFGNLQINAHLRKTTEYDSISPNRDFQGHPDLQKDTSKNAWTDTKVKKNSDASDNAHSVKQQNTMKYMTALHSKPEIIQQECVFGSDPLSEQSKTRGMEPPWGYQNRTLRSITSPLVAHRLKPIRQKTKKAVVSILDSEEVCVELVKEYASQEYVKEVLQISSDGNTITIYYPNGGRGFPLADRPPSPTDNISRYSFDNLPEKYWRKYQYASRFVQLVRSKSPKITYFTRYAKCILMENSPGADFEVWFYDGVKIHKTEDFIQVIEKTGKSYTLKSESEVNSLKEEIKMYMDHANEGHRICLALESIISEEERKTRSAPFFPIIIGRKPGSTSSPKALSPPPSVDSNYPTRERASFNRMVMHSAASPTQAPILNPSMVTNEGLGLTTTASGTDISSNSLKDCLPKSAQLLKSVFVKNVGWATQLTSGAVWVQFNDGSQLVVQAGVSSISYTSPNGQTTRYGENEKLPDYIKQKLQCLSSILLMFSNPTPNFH
In words: Inhibition of PLK4 (unknown origin).

For series [4], the target named is Focal adhesion kinase 1 (Homo sapiens, UniProt Q05397). In words: Inhibition of FAK (unknown origin).
Series [5] concerns the target CYP3A4 (Homo sapiens, UniProt P08684). In words: Inhibition of CYP3A4 in human liver microsomes using midazolam as substrate at 10 uM preincubated for 10 mins followed by NADPH addition and measured after 15 mins by LC-MS/MS analysis. The series is classed as ADME, Microsome. The following applies: probe midazolam, time 25 min. (In general: Liver microsomes are a subcellular fraction often used to study metabolism.)

The target of series [6] is CYP2D6 (Homo sapiens, UniProt P10635). In words: Inhibition of CYP2D6 in human liver microsomes using dextromethorphan as substrate at 10 uM preincubated for 10 mins followed by NADPH addition and measured after 15 mins by LC-MS/MS analysis. In kind it is ADME, Microsome. The following applies: probe dextromethorphan, time 25 min.
Series [7] addresses CYP2C19 (Homo sapiens, UniProt P33261). In words: Inhibition of CYP2C19 in human liver microsomes using S-mephenytoin as substrate at 10 uM preincubated for 10 mins followed by NADPH addition and measured after 15 mins by LC-MS/MS analysis. The following applies: probe S-mephenytoin, time 25 min. The series is classed as ADME, Microsome.
Series [8] in a line: Stability in human plasma assessed as parent compound remaining at 100 uM and measured after 120 mins by LC-MS/MS analysis. In kind it is ADME, cell-free. Conditions: read-out: Stability.
Series [9] has as its target T2, CYP1A2 (Homo sapiens, UniProt P05177).
T2 sequence (P05177 whole entry): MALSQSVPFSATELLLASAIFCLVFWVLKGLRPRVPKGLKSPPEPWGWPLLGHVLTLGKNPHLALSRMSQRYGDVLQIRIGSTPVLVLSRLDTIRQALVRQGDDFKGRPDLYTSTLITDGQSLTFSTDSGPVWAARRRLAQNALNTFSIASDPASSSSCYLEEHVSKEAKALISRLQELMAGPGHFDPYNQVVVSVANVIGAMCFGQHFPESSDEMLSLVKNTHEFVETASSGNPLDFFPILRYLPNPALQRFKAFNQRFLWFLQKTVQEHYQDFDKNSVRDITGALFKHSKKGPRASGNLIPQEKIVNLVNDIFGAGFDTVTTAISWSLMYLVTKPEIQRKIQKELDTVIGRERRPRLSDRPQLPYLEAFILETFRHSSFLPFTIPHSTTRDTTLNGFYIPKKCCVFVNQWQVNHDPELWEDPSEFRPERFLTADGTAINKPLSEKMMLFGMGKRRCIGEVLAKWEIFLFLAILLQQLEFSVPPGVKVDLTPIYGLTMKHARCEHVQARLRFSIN
Briefly: Inhibition of CYP1A2 in human liver microsomes using phenacetin as substrate at 10 uM preincubated for 10 mins followed by NADPH addition and measured after 15 mins by LC-MS/MS analysis. The following applies: probe phenacetin, time 25 min. In kind it is ADME, Microsome.

In series [10] the target is CYP2C9 (Homo sapiens, UniProt P11712). In words: Inhibition of CYP2C9 in human liver microsomes using diclofenac as substrate at 10 uM preincubated for 10 mins followed by NADPH addition and measured after 15 mins by LC-MS/MS analysis. The series is classed as ADME, Microsome. The following applies: probe diclofenac, time 25 min.
Series [11] is described as follows: Stability in human plasma assessed as parent compound remaining at 100 uM and measured after 60 mins by LC-MS/MS analysis. The series is classed as ADME, cell-free. Conditions: read-out: Stability.
A short description of series [12]: Stability in human plasma assessed as parent compound remaining at 100 uM and measured after 30 mins by LC-MS/MS analysis. The following applies: read-out: Stability. The series is classed as ADME, cell-free.
The nature of series [13]: Stability in human plasma assessed as parent compound remaining at 100 uM and measured after 10 mins by LC-MS/MS analysis. The series is classed as ADME, cell-free. The following applies: read-out: Stability.
Series [14] can be described thus: Stability in human plasma assessed as parent compound remaining at 100 uM and measured after 0 mins by LC-MS/MS analysis. The series is classed as ADME, cell-free. The following applies: read-out: Stability.
Series [15] in a line: Stability in human plasma assessed as half life at 100 uM and measured after 120 mins by LC-MS/MS analysis. The series is classed as ADME, cell-free.
A short description of series [16]: Inhibition of tyrosine kinase (unknown origin). Also on record: species or system Homo sapiens.
For series [17], the system named is MCF7. Briefly: Antiproliferative activity against human MCF7 cells assessed as cell growth inhibition incubated for 72 hrs by CCK-8 assay. In kind it is functional, cell-based. The following applies: MCF7, 72 h.
Series [18] relates to KM12. In words: Antiproliferative activity against human KM12 cells assessed as cell growth inhibition incubated for 72 hrs by CCK-8 assay. In kind it is functional, cell-based. Conditions: KM12, 72 h. For orientation: Tetrazolium dyes change colour on reduction, which living cells bring about.

Sequence of Focal adhesion kinase 1 (Q05397 whole entry): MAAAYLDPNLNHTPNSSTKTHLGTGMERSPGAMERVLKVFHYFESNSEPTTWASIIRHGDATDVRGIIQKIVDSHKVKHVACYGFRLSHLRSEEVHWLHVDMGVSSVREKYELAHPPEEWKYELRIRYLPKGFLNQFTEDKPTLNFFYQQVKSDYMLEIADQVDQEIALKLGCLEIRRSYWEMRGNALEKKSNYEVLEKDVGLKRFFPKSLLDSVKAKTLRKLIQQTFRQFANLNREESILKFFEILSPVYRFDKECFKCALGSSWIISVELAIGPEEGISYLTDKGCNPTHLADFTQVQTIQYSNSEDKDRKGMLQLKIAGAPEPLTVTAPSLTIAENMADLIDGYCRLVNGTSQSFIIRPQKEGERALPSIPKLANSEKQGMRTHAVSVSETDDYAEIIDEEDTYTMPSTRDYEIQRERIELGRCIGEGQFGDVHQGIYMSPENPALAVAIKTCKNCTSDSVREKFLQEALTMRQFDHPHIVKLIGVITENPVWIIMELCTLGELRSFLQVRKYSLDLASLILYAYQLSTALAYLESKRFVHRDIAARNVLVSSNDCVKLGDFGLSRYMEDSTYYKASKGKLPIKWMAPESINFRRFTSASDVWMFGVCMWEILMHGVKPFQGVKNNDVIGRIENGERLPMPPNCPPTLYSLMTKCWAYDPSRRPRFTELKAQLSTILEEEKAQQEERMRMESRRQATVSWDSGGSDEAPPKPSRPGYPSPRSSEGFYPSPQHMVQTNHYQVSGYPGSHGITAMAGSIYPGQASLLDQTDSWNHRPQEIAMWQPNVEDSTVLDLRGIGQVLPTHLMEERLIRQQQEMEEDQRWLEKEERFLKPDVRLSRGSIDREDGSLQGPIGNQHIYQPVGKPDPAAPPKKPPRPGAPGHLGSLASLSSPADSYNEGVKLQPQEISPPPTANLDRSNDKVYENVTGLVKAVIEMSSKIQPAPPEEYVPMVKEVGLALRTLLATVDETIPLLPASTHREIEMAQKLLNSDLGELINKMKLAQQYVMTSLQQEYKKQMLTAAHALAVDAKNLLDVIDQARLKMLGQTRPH
Sequence of Serine/threonine-protein kinase PAK 4 (O96013 whole entry): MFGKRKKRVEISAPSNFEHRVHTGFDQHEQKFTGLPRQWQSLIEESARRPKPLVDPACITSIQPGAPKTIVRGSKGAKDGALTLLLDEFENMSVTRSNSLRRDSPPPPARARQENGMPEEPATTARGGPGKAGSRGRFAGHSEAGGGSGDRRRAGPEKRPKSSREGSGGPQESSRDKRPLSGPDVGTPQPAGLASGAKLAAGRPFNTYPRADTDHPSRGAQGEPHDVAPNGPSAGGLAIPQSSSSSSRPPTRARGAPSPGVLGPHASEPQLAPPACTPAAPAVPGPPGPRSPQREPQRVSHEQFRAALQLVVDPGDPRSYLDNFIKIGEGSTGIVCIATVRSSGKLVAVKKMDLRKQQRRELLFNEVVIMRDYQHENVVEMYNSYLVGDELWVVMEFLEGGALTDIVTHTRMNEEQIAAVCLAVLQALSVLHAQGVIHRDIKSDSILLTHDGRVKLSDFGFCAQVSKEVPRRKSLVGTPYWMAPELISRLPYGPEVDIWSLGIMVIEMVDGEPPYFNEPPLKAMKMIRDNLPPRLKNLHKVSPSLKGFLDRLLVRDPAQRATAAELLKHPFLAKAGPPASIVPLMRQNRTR
Sequence of High affinity nerve growth factor receptor (P04629 whole entry): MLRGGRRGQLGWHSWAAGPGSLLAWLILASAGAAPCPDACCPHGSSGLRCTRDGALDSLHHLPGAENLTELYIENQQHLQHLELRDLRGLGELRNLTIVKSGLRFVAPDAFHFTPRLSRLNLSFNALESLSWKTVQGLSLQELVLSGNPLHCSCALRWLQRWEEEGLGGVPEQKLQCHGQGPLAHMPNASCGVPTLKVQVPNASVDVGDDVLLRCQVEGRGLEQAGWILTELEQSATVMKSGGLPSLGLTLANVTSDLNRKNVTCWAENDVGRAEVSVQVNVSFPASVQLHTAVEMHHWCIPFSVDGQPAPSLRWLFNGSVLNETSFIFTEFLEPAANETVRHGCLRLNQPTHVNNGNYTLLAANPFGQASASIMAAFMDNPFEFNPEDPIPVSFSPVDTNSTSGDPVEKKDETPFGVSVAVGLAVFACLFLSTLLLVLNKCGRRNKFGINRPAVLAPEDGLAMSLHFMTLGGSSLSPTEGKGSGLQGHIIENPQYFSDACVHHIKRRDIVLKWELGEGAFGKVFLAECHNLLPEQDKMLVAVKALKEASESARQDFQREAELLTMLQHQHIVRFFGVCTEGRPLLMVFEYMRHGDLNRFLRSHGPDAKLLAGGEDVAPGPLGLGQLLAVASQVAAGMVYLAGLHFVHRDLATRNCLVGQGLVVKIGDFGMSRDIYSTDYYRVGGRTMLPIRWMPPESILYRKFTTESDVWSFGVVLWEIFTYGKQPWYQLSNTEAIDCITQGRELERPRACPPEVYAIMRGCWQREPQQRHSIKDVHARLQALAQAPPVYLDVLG
Sequence of CYP2C19 (P33261 whole entry): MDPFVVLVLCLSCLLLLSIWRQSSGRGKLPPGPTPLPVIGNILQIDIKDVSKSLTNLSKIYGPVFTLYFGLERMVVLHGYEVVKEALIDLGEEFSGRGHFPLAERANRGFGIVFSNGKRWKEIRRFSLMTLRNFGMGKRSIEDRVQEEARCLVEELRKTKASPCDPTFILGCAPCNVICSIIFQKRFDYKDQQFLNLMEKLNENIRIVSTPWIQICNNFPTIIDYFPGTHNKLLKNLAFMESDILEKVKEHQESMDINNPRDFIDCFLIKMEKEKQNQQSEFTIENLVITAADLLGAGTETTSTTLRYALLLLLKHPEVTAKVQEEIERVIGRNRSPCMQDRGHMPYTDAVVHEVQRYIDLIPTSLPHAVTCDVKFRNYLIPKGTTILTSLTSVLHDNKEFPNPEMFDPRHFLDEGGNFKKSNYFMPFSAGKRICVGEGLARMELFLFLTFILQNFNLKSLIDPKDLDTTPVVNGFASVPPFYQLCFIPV
Sequence of CYP2C9 (P11712 whole entry): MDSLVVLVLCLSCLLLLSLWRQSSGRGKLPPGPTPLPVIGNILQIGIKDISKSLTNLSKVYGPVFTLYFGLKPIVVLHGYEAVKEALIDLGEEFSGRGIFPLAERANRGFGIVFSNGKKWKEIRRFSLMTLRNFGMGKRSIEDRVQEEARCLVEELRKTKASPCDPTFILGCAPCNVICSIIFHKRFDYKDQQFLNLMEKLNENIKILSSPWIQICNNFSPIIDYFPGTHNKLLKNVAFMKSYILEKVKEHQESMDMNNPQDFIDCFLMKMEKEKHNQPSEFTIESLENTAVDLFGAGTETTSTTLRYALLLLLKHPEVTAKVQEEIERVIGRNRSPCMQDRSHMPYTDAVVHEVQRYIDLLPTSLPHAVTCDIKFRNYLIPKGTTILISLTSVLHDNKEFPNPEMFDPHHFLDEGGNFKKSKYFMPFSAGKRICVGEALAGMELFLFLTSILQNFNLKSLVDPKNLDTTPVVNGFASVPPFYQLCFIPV
Sequence of CYP3A4 (P08684 whole entry): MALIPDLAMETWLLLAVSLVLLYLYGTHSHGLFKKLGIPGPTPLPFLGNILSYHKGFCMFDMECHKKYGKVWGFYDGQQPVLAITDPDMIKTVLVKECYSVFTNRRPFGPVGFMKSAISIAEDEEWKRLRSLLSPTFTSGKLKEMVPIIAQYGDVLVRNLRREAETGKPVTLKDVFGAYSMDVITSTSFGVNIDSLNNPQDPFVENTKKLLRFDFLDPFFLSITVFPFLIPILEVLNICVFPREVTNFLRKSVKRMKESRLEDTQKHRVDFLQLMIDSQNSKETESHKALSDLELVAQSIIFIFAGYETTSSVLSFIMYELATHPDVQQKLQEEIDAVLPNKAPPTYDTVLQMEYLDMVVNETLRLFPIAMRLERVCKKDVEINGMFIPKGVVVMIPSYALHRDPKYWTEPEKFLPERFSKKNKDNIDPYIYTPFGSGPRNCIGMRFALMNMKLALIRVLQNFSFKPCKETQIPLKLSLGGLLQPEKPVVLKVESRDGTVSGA
Sequence of CYP2D6 (P10635 whole entry): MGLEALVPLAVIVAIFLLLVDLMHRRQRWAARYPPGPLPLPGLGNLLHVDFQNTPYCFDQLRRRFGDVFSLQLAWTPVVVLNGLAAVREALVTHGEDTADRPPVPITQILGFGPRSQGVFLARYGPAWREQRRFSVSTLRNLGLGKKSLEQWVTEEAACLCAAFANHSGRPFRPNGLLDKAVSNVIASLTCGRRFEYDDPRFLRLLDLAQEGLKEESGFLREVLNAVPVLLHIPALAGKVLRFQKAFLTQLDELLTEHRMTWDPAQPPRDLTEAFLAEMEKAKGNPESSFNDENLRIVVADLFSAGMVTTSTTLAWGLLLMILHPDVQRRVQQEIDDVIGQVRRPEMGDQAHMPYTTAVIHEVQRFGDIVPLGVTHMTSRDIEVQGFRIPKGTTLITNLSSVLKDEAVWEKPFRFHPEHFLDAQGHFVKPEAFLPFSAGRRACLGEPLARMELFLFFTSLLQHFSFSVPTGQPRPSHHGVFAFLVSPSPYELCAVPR

With `CN1CCN(C(=O)c2ccc(Nc3n[nH]c4ncc(Cc5cc(F)ccc5F)cc34)cc2)CC1`, the half-maximal inhibitory concentration (IC50) in [1] stood at 389 nM.
In the case of `O=C(c1cccc(Nc2n[nH]c3ncc(Cc4ccc(F)cc4)cc23)c1)N1CCOCC1`, the IC50 in series [1] came to 2780 nM.
On the same count and under the same terms, the same measure for `O=C(c1cccc(Nc2n[nH]c3ncc(Cc4cccc(C(F)(F)F)c4)cc23)c1)N1CCOCC1`: 16700 nM; for `O=C(c1cccc(Nc2n[nH]c3ncc(Cc4c(F)cccc4F)cc23)c1)N1CCOCC1`: 838 nM; for `O=C(c1ccc(Nc2n[nH]c3ncc(Cc4cc(F)ccc4F)cc23)cc1)N1CCNCC1`: 409 nM.
`O=C(c1cccc(-c2n[nH]c3ncc(Cc4cc(F)ccc4F)cc23)c1)N1CCC[C@H](O)C1`: the IC50 in series [2] is > 100000 nM; in [3], 1320 nM; in [4] it was > 100000 nM.
On to `O=C(c1cccc(-c2n[nH]c3ncc(Cc4cc(F)ccc4F)cc23)c1)N1CCC[C@@H](O)C1`, for which the results for the half-maximal inhibitory concentration (IC50) in series [2], in series [3] and in series [4] were > 100000 nM, 690 nM and > 100000 nM, respectively.
On to `O=C(c1cccc(Nc2n[nH]c3ncc(Cc4ccc(F)c(F)c4)cc23)c1)N1CCOCC1`, for which the IC50 in series [1] was > 100000 nM.
Same read-out and setting: the same measure for `NC1CCN(C(=O)c2cccc(Nc3n[nH]c4ncc(Cc5cc(F)ccc5F)cc34)c2)CC1`: 437 nM.
Still for that read-out and setting: the figure for `O=C(c1cccc(Nc2n[nH]c3ncc(Cc4cc(F)cc(F)c4)cc23)c1)N1CCOCC1` is 700 nM; for `O=C(c1cccc(Nc2n[nH]c3ncc(Cc4cc(F)ccc4F)cc23)c1)N1CCCC(O)C1` (configuration not stated) it is 205 nM.
For `O=C(c1ccc(Nc2n[nH]c3ncc(Cc4cc(F)ccc4F)cc23)cc1)N1CCCC(O)C1` (configuration not stated), the concentration for half-maximal inhibition (IC50) in series [1] is 156 nM.
The same measure, in the same setting: the same measure for `O=C(c1ccc(Nc2n[nH]c3ncc(Cc4cc(F)ccc4F)cc23)cc1)N1CCOCC1`: 980 nM.
For the compound `O=C(c1cccc(-c2n[nH]c3ncc(Cc4cc(F)ccc4F)cc23)c1)N1CCCC(O)C1` (configuration not stated), the half-inhibitory concentration (IC50) in series [2] was > 100000 nM; in series [3] it was 1650 nM; in series [4] it was > 100000 nM. Besides, the inhibition at 0.25 h, 10 µM in series [5] came to 0%; in series [6] it was 25.8%; in series [7], 48.6%; in [9], 16.6%; in series [10], 66.6%. In addition, the remaining at 2 h, 100 µM in [8] amounted to 89.1%. In series [11], the remaining at 1 h, 100 µM came to 93.6%. Besides, in [12], the remaining at 0.5 h, 100 µM amounted to 88%. In series [13], the remaining at 10 min, 100 µM turned out to be 104%. In [14], the remaining at 0 h, 100 µM was 100%. Further, the half-life at 100 µM in series [15] was > 4.82 h.
On to `O=C(c1cccc(Nc2n[nH]c3ncc(Cc4cccc(F)c4F)cc23)c1)N1CCOCC1`, for which the IC50 in series [1] was found to be 1970 nM.
Same read-out and setting: the same measure for `O=C(c1cccc(-c2n[nH]c3ncc(Cc4cc(F)ccc4F)cc23)c1)N1CCC(O)CC1`: 254 nM; for `O=C(c1cccc(Nc2n[nH]c3ncc(Cc4cc(F)c(F)c(F)c4)cc23)c1)N1CCOCC1`: 660 nM.
Take `O=C(Nc1cnn2ccc(N3CCC[C@@H]3c3cc(F)ccc3F)nc12)N1CC[C@H](O)C1` [LAROTRECTINIB]: the values for the half-maximal inhibitory concentration (IC50) in series [16], in [17] and in [18] were < 20 nM, > 40000 nM and 12 nM, respectively.
